Columns and labels:
Format in all cases: in vivo
barnyard grass [1] = assay: Test Example 1: weedkilling efficacy, preemergent weed treatment in the submerged state; A: barnyard grass; conditions: treatment dosage 252 g/ha
Procedure, shortened: (§1)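 Pre-emergence paddy test: weed seeds sown in submerged alluvial soil (4 cm water), 2.5-leaf rice transplanted, water-diluted emulsion applied to water surface at sowing at stated g/ha. Scored at 3 weeks, greenhouse 25–30 °C.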

bulrush [2] = assay: Test Example 1: weedkilling efficacy, preemergent weed treatment in the submerged state; B: bulrush; conditions: treatment dosage 252 g/ha
Procedure, shortened: as §1

oval-leafed pondweed [3] = assay: Test Example 1: weedkilling efficacy, preemergent weed treatment in the submerged state; C: oval-leafed pondweed; conditions: treatment dosage 252 g/ha
Procedure, shortened: as §1

transplanted rice = assay: Test Example 1: preemergent weed treatment in the submerged state, effect on crop; a: transplanted rice; conditions: treatment dosage 252 g/ha
Procedure, shortened: as §1

barnyard grass [4] = assay: Test Example 2: weedkilling efficacy, growth period weed treatment in the submerged state; A: barnyard grass; conditions: treatment dosage 252 g/ha
Procedure, shortened: (§2)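 Seedlings at 1-2 leaves in 4 cm-deep submerged alluvial soil received emulsion formulations on the water surface, dosed per hectare; effects were judged 3 weeks on.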

bulrush [5] = assay: Test Example 2: weedkilling efficacy, growth period weed treatment in the submerged state; B: bulrush; conditions: treatment dosage 252 g/ha
Procedure, shortened: as §2

oval-leafed pondweed [6] = assay: Test Example 2: weedkilling efficacy, growth period weed treatment in the submerged state; C: oval-leafed pondweed; conditions: treatment dosage 252 g/ha
Procedure, shortened: as §2

crabgrass [7] = assay: Test Example 3: weedkilling efficacy through soil treatment; D: crabgrass; conditions: treatment dosage 315 g/ha
Procedure, shortened: (§3)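 Crop and weed responses were judged three weeks after a uniform surface spray of the water-diluted emulsion at the given g/ha rate. Seeds sat beneath about 1.5 cm of sterilized diluvial soil, and boxes stood in a greenhouse at 25 to 30° C.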

green foxtail [8] = assay: Test Example 3: weedkilling efficacy through soil treatment; E: green foxtail; conditions: treatment dosage 315 g/ha
Procedure, shortened: as §3

wild oat [9] = assay: Test Example 3: weedkilling efficacy through soil treatment; G: wild oat; conditions: treatment dosage 315 g/ha
Procedure, shortened: as §3

black-grass [10] = assay: Test Example 3: weedkilling efficacy through soil treatment; H: black-grass; conditions: treatment dosage 315 g/ha
Procedure, shortened: as §3

Italian ryegrass [11] = assay: Test Example 3: weedkilling efficacy through soil treatment; I: Italian ryegrass; conditions: treatment dosage 315 g/ha
Procedure, shortened: as §3

Indian mallow [12] = assay: Test Example 3: weedkilling efficacy through soil treatment; K: Indian mallow; conditions: treatment dosage 315 g/ha
Procedure, shortened: as §3

redroot pigweed [13] = assay: Test Example 3: weedkilling efficacy through soil treatment; L: redroot pigweed; conditions: treatment dosage 315 g/ha
Procedure, shortened: as §3

fig-leafed goosefoot [14] = assay: Test Example 3: weedkilling efficacy through soil treatment; M: fig-leafed goosefoot; conditions: treatment dosage 315 g/ha
Procedure, shortened: as §3

chickweed [15] = assay: Test Example 3: weedkilling efficacy through soil treatment; N: chickweed; conditions: treatment dosage 315 g/ha
Procedure, shortened: as §3

birds-eye speedwell [16] = assay: Test Example 3: weedkilling efficacy through soil treatment; p: birds-eye speedwell; conditions: treatment dosage 315 g/ha
Procedure, shortened: as §3

directly sown rice [17] = assay: Test Example 3: soil treatment, effect on crop; b: directly sown rice; conditions: treatment dosage 315 g/ha
Procedure, shortened: as §3

corn [18] = assay: Test Example 3: soil treatment, effect on crop; c: corn; conditions: treatment dosage 315 g/ha
Procedure, shortened: as §3

soybean [19] = assay: Test Example 3: soil treatment, effect on crop; d: soybean; conditions: treatment dosage 315 g/ha
Procedure, shortened: as §3

wheat [20] = assay: Test Example 3: soil treatment, effect on crop; e: wheat; conditions: treatment dosage 315 g/ha
Procedure, shortened: as §3

beet [21] = assay: Test Example 3: soil treatment, effect on crop; f: beet; conditions: treatment dosage 315 g/ha
Procedure, shortened: as §3

crabgrass [22] = assay: Test Example 4: weedkilling efficacy by foliar treatment; D: crabgrass; conditions: treatment dosage 315 g/ha
Procedure, shortened: (§4)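 Seeds are spot-sown into sterilized diluvial soil and covered with about 1.5 cm of soil. After 14 days' greenhouse growth at 25 to 30° C, plants are sprayed on stems and leaves with diluted emulsion at the stated g/ha rate, then scored at 3 weeks.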

green foxtail [23] = assay: Test Example 4: weedkilling efficacy by foliar treatment; E: green foxtail; conditions: treatment dosage 315 g/ha
Procedure, shortened: as §4

wild oat [24] = assay: Test Example 4: weedkilling efficacy by foliar treatment; G: wild oat; conditions: treatment dosage 315 g/ha
Procedure, shortened: as §4

black-grass [25] = assay: Test Example 4: weedkilling efficacy by foliar treatment; H: black-grass; conditions: treatment dosage 315 g/ha
Procedure, shortened: as §4

Italian ryegrass [26] = assay: Test Example 4: weedkilling efficacy by foliar treatment; I: Italian ryegrass; conditions: treatment dosage 315 g/ha
Procedure, shortened: as §4

Indian mallow [27] = assay: Test Example 4: weedkilling efficacy by foliar treatment; K: Indian mallow; conditions: treatment dosage 315 g/ha
Procedure, shortened: as §4

redroot pigweed [28] = assay: Test Example 4: weedkilling efficacy by foliar treatment; L: redroot pigweed; conditions: treatment dosage 315 g/ha
Procedure, shortened: as §4

fig-leafed goosefoot [29] = assay: Test Example 4: weedkilling efficacy by foliar treatment; M: fig-leafed goosefoot; conditions: treatment dosage 315 g/ha
Procedure, shortened: as §4

chickweed [30] = assay: Test Example 4: weedkilling efficacy by foliar treatment; N: chickweed; conditions: treatment dosage 315 g/ha
Procedure, shortened: as §4

catchweed = assay: Test Example 4: weedkilling efficacy by foliar treatment; O: catchweed; conditions: treatment dosage 315 g/ha
Procedure, shortened: as §4

birds-eye speedwell [31] = assay: Test Example 4: weedkilling efficacy by foliar treatment; p: birds-eye speedwell; conditions: treatment dosage 315 g/ha
Procedure, shortened: as §4

directly sown rice [32] = assay: Test Example 4: foliar treatment, effect on crop; b: directly sown rice; conditions: treatment dosage 315 g/ha
Procedure, shortened: as §4

corn [33] = assay: Test Example 4: foliar treatment, effect on crop; c: corn; conditions: treatment dosage 315 g/ha
Procedure, shortened: as §4

soybean [34] = assay: Test Example 4: foliar treatment, effect on crop; d: soybean; conditions: treatment dosage 315 g/ha
Procedure, shortened: as §4

wheat [35] = assay: Test Example 4: foliar treatment, effect on crop; e: wheat; conditions: treatment dosage 315 g/ha
Procedure, shortened: as §4

beet [36] = assay: Test Example 4: foliar treatment, effect on crop; f: beet; conditions: treatment dosage 315 g/ha
Procedure, shortened: as §4

CC1=C(c2ccccc2)C(=O)N(C(C)(C)C(=O)Nc2nc(Cl)ns2)CO1 [B-1-12]
A (barnyard grass) weedkilling efficacy grade (barnyard grass [1]): 5 (weed kill ratio 90% or more, (practically complete withering))
B (bulrush) weedkilling efficacy grade (bulrush [2]): 5 (weed kill ratio 90% or more, (practically complete withering))
C (oval-leafed pondweed) weedkilling efficacy grade (oval-leafed pondweed [3]): 5 (weed kill ratio 90% or more, (practically complete withering))
a (transplanted rice) effect on crop grade (transplanted rice): 0 (weed kill ratio 5% or less (practically no effect))
A (barnyard grass) weedkilling efficacy grade (barnyard grass [4]): 5 (weed kill ratio 90% or more, (practically complete withering))
B (bulrush) weedkilling efficacy grade (bulrush [5]): 5 (weed kill ratio 90% or more, (practically complete withering))
C (oval-leafed pondweed) weedkilling efficacy grade (oval-leafed pondweed [6]): 5 (weed kill ratio 90% or more, (practically complete withering))
D (crabgrass) weedkilling efficacy grade (crabgrass [7]): 5 (weed kill ratio 90% or more, (practically complete withering))
E (green foxtail) weedkilling efficacy grade (green foxtail [8]): 5 (weed kill ratio 90% or more, (practically complete withering))
G (wild oat) weedkilling efficacy grade (wild oat [9]): 3 (weed kill ratio 40% or more, less than 70%)
H (black-grass) weedkilling efficacy grade (black-grass [10]): 4 (weed kill ratio 70% or more, less than 90%)
I (Italian ryegrass) weedkilling efficacy grade (Italian ryegrass [11]): 2 (weed kill ratio 20% or more, less than 40%)
K (Indian mallow) weedkilling efficacy grade (Indian mallow [12]): 4 (weed kill ratio 70% or more, less than 90%)
L (redroot pigweed) weedkilling efficacy grade (redroot pigweed [13]): 4 (weed kill ratio 70% or more, less than 90%)
M (fig-leafed goosefoot) weedkilling efficacy grade (fig-leafed goosefoot [14]): 4 (weed kill ratio 70% or more, less than 90%)
N (chickweed) weedkilling efficacy grade (chickweed [15]): 4 (weed kill ratio 70% or more, less than 90%)
P (birds-eye speedwell) weedkilling efficacy grade (birds-eye speedwell [16]): 4 (weed kill ratio 70% or more, less than 90%)
b (directly sown rice) effect on crop grade (directly sown rice [17]): 5 (weed kill ratio 90% or more, (practically complete withering))
c (corn) effect on crop grade (corn [18]): 5 (weed kill ratio 90% or more, (practically complete withering))
d (soybean) effect on crop grade (soybean [19]): 0 (weed kill ratio 5% or less (practically no effect))
e (wheat) effect on crop grade (wheat [20]): 0 (weed kill ratio 5% or less (practically no effect))
f (beet) effect on crop grade (beet [21]): 5 (weed kill ratio 90% or more, (practically complete withering))
D (crabgrass) weedkilling efficacy grade (crabgrass [22]): 5 (weed kill ratio 90% or more, (practically complete withering))
E (green foxtail) weedkilling efficacy grade (green foxtail [23]): 5 (weed kill ratio 90% or more, (practically complete withering))
G (wild oat) weedkilling efficacy grade (wild oat [24]): 3 (weed kill ratio 40% or more, less than 70%)
H (black-grass) weedkilling efficacy grade (black-grass [25]): 4 (weed kill ratio 70% or more, less than 90%)
I (Italian ryegrass) weedkilling efficacy grade (Italian ryegrass [26]): 1 (weed kill ratio 5% or more, less than 20%)
K (Indian mallow) weedkilling efficacy grade (Indian mallow [27]): 3 (weed kill ratio 40% or more, less than 70%)
L (redroot pigweed) weedkilling efficacy grade (redroot pigweed [28]): 0 (weed kill ratio 5% or less (practically no effect))
M (fig-leafed goosefoot) weedkilling efficacy grade (fig-leafed goosefoot [29]): 4 (weed kill ratio 70% or more, less than 90%)
N (chickweed) weedkilling efficacy grade (chickweed [30]): 4 (weed kill ratio 70% or more, less than 90%)
O (catchweed) weedkilling efficacy grade (catchweed): 3 (weed kill ratio 40% or more, less than 70%)
P (birds-eye speedwell) weedkilling efficacy grade (birds-eye speedwell [31]): 3 (weed kill ratio 40% or more, less than 70%)
b (directly sown rice) effect on crop grade (directly sown rice [32]): 3 (weed kill ratio 40% or more, less than 70%)
c (corn) effect on crop grade (corn [33]): 5 (weed kill ratio 90% or more, (practically complete withering))
d (soybean) effect on crop grade (soybean [34]): 0 (weed kill ratio 5% or less (practically no effect))
e (wheat) effect on crop grade (wheat [35]): 0 (weed kill ratio 5% or less (practically no effect))
f (beet) effect on crop grade (beet [36]): 4 (weed kill ratio 70% or more, less than 90%)

— US9738634B2, “Heterocyclic amide compound and herbicide” (SYNGENTA PARTICIPATIONS AG, priority 2013, dated 2017)
